Reference: publication PMC10584170, “Machine learning-based phenotypic imaging to characterise the targetable biology of Plasmodium falciparum male gametocytes for the development of transmission-blocking antimalarials” (PLOS Pathogens, 2023)
Where two headings read alike, the source gives them in different places.

Key:
[1] = tested on: P. falciparum male gametocytes; assay: P. falciparum Dual Gamete Formation Assay (PfDGFA), male readout (exflagellation); type: cell-based, Plasmodium falciparum NF54; details: for inhibition at 2 µM: 24h preincubation with gametocytes
Procedure, shortened: (§1)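 Day-14 NF54 gametocytes were incubated with compound for 24 h at 37°C under 1% O2/3% CO2/96% N2. Gametogenesis was triggered with ookinete medium (0.1 μM xanthurenic acid) plus Cy3-anti-Pfs25, and exflagellation was imaged by brightfield after cooling to 4°C then 28°C. Females were imaged by Pfs25 fluorescence 24 h later at 28°C.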

[2] = tested on: P. falciparum female gametocytes; assay: P. falciparum Dual Gamete Formation Assay (PfDGFA), female readout (Pfs25-positive female gametes); type: cell-based, Plasmodium falciparum NF54; details: for inhibition at 2 µM: 24h preincubation with gametocytes
Procedure, shortened: as §1

[3] = tested on: P. falciparum male gametocytes; assay: PhIDDLI timecourse assay, compound added at timepoints after triggering male gametogenesis; type: cell-based, Plasmodium falciparum NF54
Method: To gain greater understanding of their activity, selected molecules displaying different inhibition phenotypes in the initial screen were re-tested. Rather than subjecting gametocytes to a 24h preincubation prior to inducing gametogenesis, compounds were added at varying timepoints after triggering male gametogenesis. Samples were then fixed 20 min post-induction, imaged and analysed similarly using the PhIDDLI pipeline.
Alternatively, if compound action over time was to be assessed, 1.5ml tubes with appropriate dilutions of test compounds were prepared for each timepoint. Gametogenesis was then triggered in the mature gametocyte culture with ookinete medium and temperature decrease from 37°C. At appropriate times, 200 μl of triggered culture was sampled and mixed with test compound. All samples were then allowed to continue gametogenesis and fixed as described previously with paraformaldehyde after 20 min (when a DMSO-treated sample could be expected to be exflagellating).
100 μl of the fixed cell suspensions were added to wells of a 24 well plate containing 1ml PBS and a poly-l-lysine-coated glass coverslip. Cells were allowed to settle and adhere to the coverslip overnight at 4°C before coverslips were transferred to a hydrophobic membrane (Parafilm) for immunofluorescence staining in a humidified, dark box. Cells were permeabilised with 0.1% Triton-X100 in PBS for 10 min before washing in PBS three times. Non-specific binding was blocked by incubating coverslips with PBS + 10% fetal bovine serum (FBS) (blocking buffer) for 1 h. Gametocytes and microgametes were visualised by labelling with an anti-alpha tubulin antibody (raised from chicken embryo brain tubulin but cross-reacts with many other species) (clone DM1A (Sigma)) 1:500 dilution in blocking buffer for 1 h, washed as before, and then stained with an anti-mouse Alexa488 secondary antibody (Thermo-Fisher) 1:1,000 dilution in blocking buffer for a further 1 h. After a final series of washes, the coverslips were mounted on glass slides with VectaShield mountant (Vector Laboratories) containing 4′,6-diamidino-2-phenylindole (DAPI) to visualise cellular DNA.
All slides were imaged using a Nikon Ti fluorescence microscope using an x100 oil objective and 1.5x zoom. For each sample, tubulin-postive, DAPI-positive stained gametocytes/gametes were imaged at random. Z-stack images with 0.3μm slices were captured for each field of view and images deconvolved and transformed by maximum intensity projection within the Nikon NIS Elements software. Within raw images, cells were initially identified by an automated analysis pipeline developed in ICY Bioimage Analysis based upon the intensity of the tubulin staining captured which assigns a region of interest (ROI) around each cell. All ROIs were reviewed by a trained operator and adjusted if necessary to reflect the true outline of the cell (for example if two cells touching had been allocated the same ROI). Raw images contained between 1 and 8 extractable cells.
Code for the PhIDDLI pipeline was written in Python 3.8 and executed by command line within a 64-bit Ubuntu virtual machine running within Oracle VM VirtualBox 6.1. […] Principle component analysis of compound phenotypes (Fig 5) was performed using ClustViz (https://biit.cs.ut.ee/clustvis/) using ln(x+1) transformation, and k-means clustering of the resultant PCA data was coded in R and executed in R Studio version 1.1.456 to identify optimum cluster using the elbow method.

HepG2 cells [4] = assay: HepG2 cytotoxicity counter-screen; details: for Mean TOX: mean of the HepG2 TOX50 values; for DGFA Tox50 HepG2: HepG2 value reported with the DGFA screen
[5] = tested on: P. falciparum gametocytes; assay: P. falciparum Gametocyte Viability ATP Assay (PfGCT); type: cell-based, Plasmodium falciparum; details: Mean TOX HepG2 over GC-ATP IC50; GREEN = >10-fold; RED = <10-fold
Description: (§2) Fig 1 The activity of TCAMS compound identified in the Pf DGFA screen. (A) 85 molecules were confirmed active in the Pf DGFA. 58 were previously identified in one or more transmission-blocking screens. […] No molecule was identified with >4.7-fold greater activity against female gametocytes. Abbreviations (IC50 = concentration giving 50% inhibition, PbODA = P. berghei Ookinete Development Assay, PfDGFA = P. falciparum Dual Gamete Formation Assay, PfFGAA = P. falciparum Female Gametocyte Activation Assay, PfGCT = P. falciparum Gametocyte Viability ATP Assay).

[6] = tested on: P. falciparum gametocytes; design: method as in Almela et al 2015; details: ref Almela et al 2015; read-out: Pf Gametocyte viability (ATP) GC-ATP IC50; cited from earlier work
HepG2 cells [7] = details: cited from earlier work
[8] = tested on: P. berghei ookinete development; assay: P. berghei Ookinete Development Assay (PbODA); type: cell-based, Plasmodium berghei; details: Mean TOX HepG2 over Pb ODA value; GREEN = >10-fold; RED = <10-fold
Description: as §2

[9] = tested on: P. falciparum female gametocytes; assay: P. falciparum Female Gametocyte Activation Assay (PfFGAA); type: cell-based, Plasmodium falciparum; details: Mean TOX HepG2 over FGAA IC50; GREEN = >10-fold; RED = <10-fold
Description: as §2

[10] = tested on: P. falciparum female gametocytes; design: method as in Miguel-Blanco et al 2017; details: ref Miguel-Blanco et al 2017; read-out: Pf female gametogenesis FGAA IC50; cited from earlier work
[11] = this study, read-out: Pf DGFA IC50 MALE
[12] = compound added concurrent with triggering male gametogenesis or 2 min later
[13] = compound added later than 2 min post-induction (up to 10 min)
[14] = this study, read-out: Pf DGFA IC50 FEM
[15] = compound added between 0 and 5 min post induction

IC50 [1, 11] [µM] | IC50 [2, 14] [µM] | Structure (SMILES) | Cytotox ratio Pf Male [1] | Cytotox ratio Pf Female [2] | Mean TOX (HepG2 cells [4]) [µM] | Cytotox ratio Pf GC-ATP [5] | IC50 [6] [µM] | GC-ATP TOX50 HepG2 (HepG2 cells [7]) [µM] | other results
0.62 |  | COCCN(C)CCCOc1cc2c(cc1OC)ncn2-c1cc(OCc2ccccc2C(F)(F)F)c(C(N)=O)s1.Cl [TC14] | 22.0 | 1.4 | 13.65 |  |  |  | impact on proportion of cells with replicated DNA ([3]; all timepoints of addition): minimal impact; effect on exflagellation [3, 12]: substantially reduced; effect on exflagellation [3, 13]: not inhibitory
1.13 |  | Br.c1cc(C2=NC3CCCCC3N2)ccc1OCCCOc1ccc(C2=NC3CCCCC3N2)cc1 (centres unmarked) [TC17] | 27.3 | 3.1 | 30.89 | 65.7 | 0.47 | 25 | 
0.31 | 7.66 | Cc1ccc(S(=O)(=O)N(CCCNCc2cccc(O)c2)c2ccccc2)cc1 [TC44] | 119.3 | 4.8 | 36.97 |  |  |  | Cytotox ratio Pb Ookinete [8]: 26220.7; Cytotox ratio Pf FGAA [9]: 32.4; IC50 [10]: 1.14 µM; FGAA TOX50 HepG2 (HepG2 cells [7]): 44.67 µM; ODA TOX50 HepG2 (HepG2 cells [7]): 34.6737 µM
0.38 | 0.25 | Cc1ccc(-n2c(Sc3ncnc4sccc34)nnc2N2CCCC2)cc1 [TC46] | 207.3 | 315.2 | 78.79 |  |  |  | Cytotox ratio Pb Ookinete [8]: 177427.8; Cytotox ratio Pf FGAA [9]: 160.8; IC50 [10]: 0.49 µM; FGAA TOX50 HepG2 (HepG2 cells [7]): 89.13 µM; ODA TOX50 HepG2 (HepG2 cells [7]): 74.1 µM
0.16 | 0.4 | Nc1cc(C=Cc2ccc([N+](=O)[O-])o2)nc2ccccc12 [TC58] | 44.7 | 17.9 | 7.15 | 35.7 | 0.2 | 11.7 | 
0.51 | 1.47 | CN(C)CCCn1c(N)c(-c2nc3ccccc3[nH]2)c2nc(C#N)c(C#N)nc21 [TC72] | 14.8 | 5.1 | 7.53 | 37.7 | 0.2 | 6.93 | 
 |  | O=C(C1CC1)N1c2ccccc2CCc2ccccc21 [TCMDC-123880] |  |  | 100.00 |  |  |  | Selectivity Ratio M ([1]; HepG2 Tox50 versus male IC50): 180.08; Cytotox ratio Pf Male ([1]; Mean TOX HepG2 over DGFA IC50 MALE, GREEN = >10-fold, RED = <10-fold): 178.6; inhibition at 2 µM ([1]; Plasmodium falciparum, average of replicates, read-out: Average inhibition male (%)): 95.8%; inhibition at 2 µM ([1]; Plasmodium falciparum, replicate R1, read-out: % inhibition male (individual replicates) R1): 98.9%; inhibition at 2 µM ([1]; Plasmodium falciparum, replicate R2, read-out: % inhibition male (individual replicates) R2): 92.4%; inhibition at 2 µM ([1]; Plasmodium falciparum, replicate R3, read-out: % inhibition male (individual replicates) R3): 99.8%; inhibition at 2 µM ([1]; Plasmodium falciparum, replicate R4, read-out: % inhibition male (individual replicates) R4): 92.2%; IC50 ([1]; Plasmodium falciparum, PfDGFA, 24 h incubation with gametocytes before induction, exflagellation readout, read-out: Male IC50): 0.56 µM; Selectivity ratio F ([2]; HepG2 Tox50 versus female IC50): 10; Cytotox ratio Pf Female ([2]; Mean TOX HepG2 over DGFA IC50 FEM, GREEN = >10-fold, RED = <10-fold): 10.0; inhibition at 2 µM ([2]; Plasmodium falciparum, average of replicates, read-out: Average inhibition female (%)): 7.7%; inhibition at 2 µM ([2]; Plasmodium falciparum, replicate R1, read-out: % inhibition female (individual replicates) R1): 12.4%; inhibition at 2 µM ([2]; Plasmodium falciparum, replicate R2, read-out: % inhibition female (individual replicates) R2): -4.3%; inhibition at 2 µM ([2]; Plasmodium falciparum, replicate R3, read-out: % inhibition female (individual replicates) R3): 22.7%; inhibition at 2 µM ([2]; Plasmodium falciparum, replicate R4, read-out: % inhibition female (individual replicates) R4): 0.07%; IC50 ([2]; Plasmodium falciparum, PfDGFA, 24 h incubation with gametocytes before induction, female gamete readout, read-out: Female IC50): > 10 µM; effect on exflagellation [3, 15]: strongly inhibited exflagellation; DGFA Tox50 HepG2 (HepG2 cells [4]): 100 µM
 |  | CC[C@]1(O)C[C@@H]2CN(CCc3c([nH]c4ccccc34)[C@@](C(=O)OC)(c3cc4c(cc3OC)N(C)[C@H]3[C@@](O)(C(=O)OC)[C@H](OC(C)=O)[C@]5(CC)C=CCN6CC[C@]43[C@@H]65)C2)C1 [vinblastine, reference compound] |  |  |  |  |  |  | effect on exflagellation [3, 15]: strongly inhibited exflagellation

Structure (SMILES) | IC50 [1, 11] [µM] | IC50 [2, 14] [µM] | Cytotox ratio Pf Male [1] | Cytotox ratio Pf Female [2] | Mean TOX (HepG2 cells [4]) [µM] | Cytotox ratio Pf GC-ATP [5] | IC50 [6] [µM] | GC-ATP TOX50 HepG2 (HepG2 cells [7]) [µM] | other results
CNC(=O)c1cnc(Nc2ccc(N3CCN(C)CC3)cc2)nc1Nc1ccccc1OC.O=C(O)C(F)(F)F [TC16] | 1.2 |  | 29.7 | 3.6 | 35.63 |  |  |  | cells showing apparent DNA replication ([3]; compound added concurrent with induction, fixed 20 min post-induction, DMSO control 61.4%): 21.7%; effect on exflagellation [3, 12]: substantially reduced; amounts of cells showing evidence of DNA replication ([3]; compound added during the first 2 min of male gametogenesis): markedly reduced; effect on exflagellation [3, 13]: not inhibitory
COCCCNC(=S)NN=C(C)c1ccccn1 [TC19] | 0.42 | 0.4 | 20.8 | 21.8 | 8.74 | 54.6 | 0.16 | 17 | DGFA Tox50 HepG2 (HepG2 cells [4]): 0.48 µM
Cc1cccc2nc(-c3ccc(-c4cccc(CNCCN5CCNCC5)c4)cc3)[nH]c12.O=C(O)C(F)(F)F [TC67] | 1.87 | 9.11 | 10.1 | 2.1 | 18.84 | 22.4 | 0.84 | 13.4 | 
CCC1CN2CCc3cc(OC)c(OC)cc3C2CC1CC1NCCc2cc(OC)c(OC)cc21.Cl (centres unmarked) [TC73] | 3.53 | 0.75 |  |  | 17.84 |  | 0.12 | 17.68 | IC50 [10]: 1.82 µM; FGAA TOX50 HepG2 (HepG2 cells [7]): 2.24 µM; ODA TOX50 HepG2 (HepG2 cells [7]): 23.9883 µM
Cc1cc(Nc2ccncc2)n2nc(C)c(-c3ccc(Cl)cc3)c2n1 [TC79] | 0.95 |  | 60.8 | 5.8 | 57.77 | 63.5 | 0.91 | 50 | 
